Test results published in paper PMC8016998, “Identification of potential therapeutic antimicrobial peptides against Acinetobacter baumannii in a mouse model of pneumonia” (Scientific Reports, 2021).
Read-outs that look alike come from different tables or passages of the source. Each block holds one substance with its values, some of them ahead of it. No end group written: not given here.

What was measured:
[1] = test system: MDRAB clinical strain AS40; assay type: cell-based, Acinetobacter baumannii
Procedure: (§2) MBC were determined by extending the MIC procedure in sterilized 96-well polypropylene microtiter plates according to the broth microdilution guidelines of the Clinical and Laboratory Standards Institute with some modification[47]. […] In addition, 10 µL was drawn from each well with no visible turbidity onto LB agar plates and incubated for 24 h at 37 °C. The lowest concentration showing no visible growth on agar subculture was used as the MBC value. All experiments were performed in triplicate.

[2] = test system: MDRAB clinical strain U80; assay type: cell-based, Acinetobacter baumannii
Procedure: as §2

[3] = test system: MDRAB clinical strain O59; assay type: cell-based, Acinetobacter baumannii
Procedure: as §2

[4] = test system: MDRAB clinical strain J49; assay type: cell-based, Acinetobacter baumannii
Procedure: as §2

[5] = test system: MDRAB clinical strain L87; assay type: cell-based, Acinetobacter baumannii
Procedure: as §2

[6] = test system: MDRAB clinical strain AK61; assay type: cell-based, Acinetobacter baumannii
Procedure: as §2

[7] = test system: MDRAB clinical strain AF11; assay type: cell-based, Acinetobacter baumannii
Procedure: as §2

[8] = test system: MDRAB clinical strain AF93; assay type: cell-based, Acinetobacter baumannii
[9] = test system: MDRAB clinical strain AL87; assay type: cell-based, Acinetobacter baumannii
Procedure: as §2

[10] = test system: MDRAB clinical strain Y92; assay type: cell-based, Acinetobacter baumannii
Procedure: as §2

[11] = test system: MDRAB clinical strain AF12; assay type: cell-based, Acinetobacter baumannii
Procedure: as §2

[12] = test system: MDRAB clinical strain AE6; assay type: cell-based, Acinetobacter baumannii
Procedure: as §2

[13] = test system: MDRAB clinical strain AN10; assay type: cell-based, Acinetobacter baumannii
Procedure: as §2

MDRAB strain BF50 = assay type: cell-based, Acinetobacter baumannii; conditions: 24 h
Procedure: (§1) All AMPs and TP4 derivatives used in this study were synthesized by Kelowna International Scientific Inc. (Taipei City, Taiwan) with more than 95% purity, and their molecular weights were verified by mass spectrum analysis. MBC were determined by extending the MIC procedure in sterilized 96-well polypropylene microtiter plates according to the broth microdilution guidelines of the Clinical and Laboratory Standards Institute with some modification. Briefly, 5 × 10^5 CFU/mL of bacteria were inoculated in LB medium containing AMPs or antibiotic at final concentrations ranging from 512 to 1 μg/mL (from serial twofold dilutions). After incubation for 24 h at 37 °C, the lowest concentration showing no visible growth was used as the MIC value. In addition, 10 µL was drawn from each well with no visible turbidity onto LB agar plates and incubated for 24 h at 37 °C. The lowest concentration showing no visible growth on agar subculture was used as the MBC value. All experiments were performed in triplicate.

MDRAB strain MO91 = assay type: cell-based, Acinetobacter baumannii; conditions: 24 h
Procedure: as §1

[14] = test system: MDRAB clinical strain AK29; assay type: cell-based, Acinetobacter baumannii
Procedure: as §2

[15] = test system: MDRAB clinical strain AZ93; assay type: cell-based, Acinetobacter baumannii
Procedure: as §2

[16] = test system: MDRAB clinical strain W11; assay type: cell-based, Acinetobacter baumannii
[17] = test system: MDRAB clinical strain U95; assay type: cell-based, Acinetobacter baumannii
Procedure: as §2

[18] = test system: MDRAB clinical strain D29; assay type: cell-based, Acinetobacter baumannii
Procedure: as §2

[19] = test system: Acinetobacter baumannii 17,978; assay type: cell-based;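 note: CLSI broth microdilution in 96-well polypropylene plates, MBC taken as lowest concentration giving no growth when clear wells were subcultured on LB agar for 24 h at 37 °C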
MDRAB clinical strain K2 = assay type: cell-based, Acinetobacter baumannii
Procedure: as §2

[20] = test system: MDRAB clinical strain AG51; assay type: cell-based, Acinetobacter baumannii
[21] = test system: Acinetobacter baumannii 19,606; assay type: cell-based
[22] = test system: MDRAB clinical strain AO80; assay type: cell-based, Acinetobacter baumannii
[23] = test system: MDRAB clinical strain AE5; assay type: cell-based, Acinetobacter baumannii
Procedure: as §2

MDRAB clinical strains = assay type: cell-based, Acinetobacter baumannii; conditions: range over MDRAB clinical strains (details in Supplementary Table 2); subculture on LB agar, 24 h 37 °C
Procedure: as §2

[24] = strain AS40, broth microdilution, LB, 24 h 37 °C
[25] = strain AS40, subculture on LB agar, 24 h 37 °C
[26] = strain U80, broth microdilution, LB, 24 h 37 °C
[27] = strain U80, subculture on LB agar, 24 h 37 °C
[28] = strain O59, broth microdilution, LB, 24 h 37 °C
[29] = strain O59, subculture on LB agar, 24 h 37 °C
[30] = strain J49, broth microdilution, LB, 24 h 37 °C
[31] = strain J49, subculture on LB agar, 24 h 37 °C
[32] = strain L87, broth microdilution, LB, 24 h 37 °C
[33] = strain L87, subculture on LB agar, 24 h 37 °C
[34] = strain AK61, broth microdilution, LB, 24 h 37 °C
[35] = strain AK61, subculture on LB agar, 24 h 37 °C
[36] = strain AF11, broth microdilution, LB, 24 h 37 °C
[37] = strain AF11, subculture on LB agar, 24 h 37 °C
[38] = strain AF93, broth microdilution, LB, 24 h 37 °C
[39] = strain AF93, subculture on LB agar, 24 h 37 °C
[40] = strain AL87, broth microdilution, LB, 24 h 37 °C
[41] = strain AL87, subculture on LB agar, 24 h 37 °C
[42] = strain Y92, broth microdilution, LB, 24 h 37 °C
[43] = strain Y92, subculture on LB agar, 24 h 37 °C
[44] = strain AF12, broth microdilution, LB, 24 h 37 °C
[45] = strain AF12, subculture on LB agar, 24 h 37 °C
[46] = strain AE6, broth microdilution, LB, 24 h 37 °C
[47] = strain AE6, subculture on LB agar, 24 h 37 °C
[48] = strain AN10, broth microdilution, LB, 24 h 37 °C
[49] = strain AN10, subculture on LB agar, 24 h 37 °C
[50] = strain AK29, broth microdilution, LB, 24 h 37 °C
[51] = strain AK29, subculture on LB agar, 24 h 37 °C
[52] = strain AZ93, broth microdilution, LB, 24 h 37 °C
[53] = strain AZ93, subculture on LB agar, 24 h 37 °C
[54] = strain W11, broth microdilution, LB, 24 h 37 °C
[55] = strain W11, subculture on LB agar, 24 h 37 °C
[56] = strain U95, broth microdilution, LB, 24 h 37 °C
[57] = strain U95, subculture on LB agar, 24 h 37 °C
[58] = strain D29, broth microdilution, LB, 24 h 37 °C
[59] = strain D29, subculture on LB agar, 24 h 37 °C
[60] = 10 µL from wells without turbidity onto LB agar, 24 h at 37 °C, triplicate
[61] = strain K2, broth microdilution, LB, 24 h 37 °C
[62] = strain K2, subculture on LB agar, 24 h 37 °C
[63] = strain AG51, broth microdilution, LB, 24 h 37 °C
[64] = strain AG51, subculture on LB agar, 24 h 37 °C
[65] = strain AO80, broth microdilution, LB, 24 h 37 °C
[66] = strain AO80, subculture on LB agar, 24 h 37 °C
[67] = strain AE5, broth microdilution, LB, 24 h 37 °C
[68] = strain AE5, subculture on LB agar, 24 h 37 °C

MIC ([1]; 24 h): 32 µg/mL
MIC ([2]; 24 h): 32 µg/mL
MIC ([3]; 24 h): 32 µg/mL
MIC ([4]; 24 h): 16 µg/mL
MIC ([5]; 24 h): 32 µg/mL
MIC ([6]; 24 h): 32 µg/mL
MIC ([7]; 24 h): 16 µg/mL
MIC ([8]; 24 h): 16 µg/mL
MIC ([9]; 24 h): 16 µg/mL
MIC ([10]; 24 h): 16 µg/mL
MIC ([11]; 24 h): 16 µg/mL
MIC ([12]; 24 h): 16 µg/mL
MIC ([13]; 24 h): 8 µg/mL
MIC (MDRAB strain BF50): 16 µg/mL
MIC (MDRAB strain MO91): 16 µg/mL
MIC ([14]; 24 h): 16 µg/mL
MIC ([15]; 24 h): 16 µg/mL
MIC ([16]; 24 h): 16 µg/mL
MIC ([17]; 24 h): 32 µg/mL
MIC ([18]; 24 h): 32 µg/mL
MIC ([19]; 17,978, 24 h): 16 µg/mL
MIC (MDRAB clinical strain K2; 24 h): 16 µg/mL
MIC ([20]; 24 h): 8 µg/mL
MIC ([21]; 19,606, 24 h): 16 µg/mL
MIC ([22]; 24 h): 32 µg/mL
MIC ([23]; 24 h): 16 µg/mL
Substance: FIHHIIGGLFSAGKAIHRLIRRRRR [TP4]
MBC ([1]; 24 h): 32 µg/mL
MBC ([2]; 24 h): 32 µg/mL
MBC ([3]; 24 h): 32 µg/mL
MBC ([4]; 24 h): 16 µg/mL
MBC ([5]; 24 h): 32 µg/mL
MBC ([6]; 24 h): 32 µg/mL
MBC ([7]; 24 h): 16 µg/mL
MBC ([8]; 24 h): 16 µg/mL
MBC ([9]; 24 h): 16 µg/mL
MBC ([10]; 24 h): 16 µg/mL
MBC ([11]; 24 h): 16 µg/mL
MBC ([12]; 24 h): 16 µg/mL
MBC ([13]; 24 h): 8 µg/mL
MBC (MDRAB strain BF50): 16 µg/mL
MBC (MDRAB strain MO91): 32 µg/mL
MBC ([14]; 24 h): 16 µg/mL
MBC ([15]; 24 h): 16 µg/mL
MBC ([16]; 24 h): 16 µg/mL
MBC ([17]; 24 h): 64 µg/mL
MBC ([18]; 24 h): 32 µg/mL
MBC ([19]; 17,978, 24 h): 16 µg/mL
MBC (MDRAB clinical strain K2; 24 h): 32 µg/mL
MBC ([20]; 24 h): 16 µg/mL
MBC ([21]; 19,606, 24 h): 16 µg/mL
MBC ([22]; 24 h): 32 µg/mL
MBC ([23]; 24 h): 32 µg/mL

Substance: GLFGKLIKKFGRKAISYAVKKARGKH [Latarcin 2a]
MIC [1, 24]: 8 µg/mL
MBC [1, 25]: 8 µg/mL
MIC [2, 26]: 16 µg/mL
MBC [2, 27]: 16 µg/mL
MIC [3, 28]: 16 µg/mL
MBC [3, 29]: 16 µg/mL
MIC [4, 30]: 64 µg/mL
MBC [4, 31]: 64 µg/mL
MIC [5, 32]: 16 µg/mL
MBC [5, 33]: 16 µg/mL
MIC [6, 34]: 8 µg/mL
MBC [6, 35]: 8 µg/mL
MIC [7, 36]: 8 µg/mL
MBC [7, 37]: 8 µg/mL
MIC [8, 38]: 8 µg/mL
MBC [8, 39]: 8 µg/mL
MIC [9, 40]: 4 µg/mL
MBC [9, 41]: 4 µg/mL
MIC [10, 42]: 8 µg/mL
MBC [10, 43]: 8 µg/mL
MIC [11, 44]: 8 µg/mL
MBC [11, 45]: 8 µg/mL
MIC [12, 46]: 8 µg/mL
MBC [12, 47]: 8 µg/mL
MIC [13, 48]: 4 µg/mL
MBC [13, 49]: 4 µg/mL
MIC [14, 50]: 8 µg/mL
MBC [14, 51]: 8 µg/mL
MIC [15, 52]: 8 µg/mL
MBC [15, 53]: 8 µg/mL
MIC [16, 54]: 8 µg/mL
MBC [16, 55]: 8 µg/mL
MIC [17, 56]: 16 µg/mL
MBC [17, 57]: 16 µg/mL
MIC [18, 58]: 8 µg/mL
MBC [18, 59]: 16 µg/mL
MBC [19, 60]: 16 µg/mL
MIC ([19]; broth microdilution (CLSI, modified), LB medium, 5 × 10^5 CFU/mL, 24 h at 37 °C, lowest concentration with no visible growth, triplicate): 16 µg/mL
MIC (MDRAB clinical strain K2; [61]): 64 µg/mL
MBC (MDRAB clinical strain K2; [62]): 64 µg/mL
MIC [20, 63]: 4 µg/mL
MBC [20, 64]: 4 µg/mL
MBC [21, 60]: 16 µg/mL
MIC ([21]; broth microdilution (CLSI, modified), LB medium, 5 × 10^5 CFU/mL, 24 h at 37 °C, triplicate): 16 µg/mL
MIC [22, 65]: 8 µg/mL
MBC [22, 66]: 8 µg/mL
MIC [23, 67]: 8 µg/mL
MBC [23, 68]: 8 µg/mL

Substance: GLGSVFGRLARILGRVIPKV-NH2 [Pilosulin]
MIC [1, 24]: 16 µg/mL
MBC [1, 25]: 16 µg/mL
MIC [2, 26]: 16 µg/mL
MBC [2, 27]: 16 µg/mL
MIC [3, 28]: 16 µg/mL
MBC [3, 29]: 16 µg/mL
MIC [4, 30]: 16 µg/mL
MBC [4, 31]: 16 µg/mL
MIC [5, 32]: 16 µg/mL
MBC [5, 33]: 16 µg/mL
MIC [6, 34]: 16 µg/mL
MBC [6, 35]: 16 µg/mL
MIC [7, 36]: 8 µg/mL
MBC [7, 37]: 16 µg/mL
MIC [8, 38]: 8 µg/mL
MBC [8, 39]: 8 µg/mL
MIC [9, 40]: 8 µg/mL
MBC [9, 41]: 8 µg/mL
MIC [10, 42]: 8 µg/mL
MBC [10, 43]: 8 µg/mL
MIC [11, 44]: 8 µg/mL
MBC [11, 45]: 16 µg/mL
MIC [12, 46]: 16 µg/mL
MBC [12, 47]: 16 µg/mL
MIC [13, 48]: 8 µg/mL
MBC [13, 49]: 8 µg/mL
MIC [14, 50]: 16 µg/mL
MBC [14, 51]: 16 µg/mL
MIC [15, 52]: 16 µg/mL
MBC [15, 53]: 16 µg/mL
MIC [16, 54]: 16 µg/mL
MBC [16, 55]: 16 µg/mL
MIC [17, 56]: 32 µg/mL
MBC [17, 57]: 32 µg/mL
MIC [18, 58]: 16 µg/mL
MBC [18, 59]: 32 µg/mL
MBC [19, 60]: 32 µg/mL
MIC (MDRAB clinical strain K2; [61]): 16 µg/mL
MBC (MDRAB clinical strain K2; [62]): 32 µg/mL
MBC (MDRAB clinical strains): 8 to 32 µg/mL
MIC [20, 63]: 8 µg/mL
MBC [20, 64]: 16 µg/mL
MIC [22, 65]: 16 µg/mL
MBC [22, 66]: 32 µg/mL
MIC [23, 67]: 8 µg/mL
MBC [23, 68]: 16 µg/mL
